{"source": "patent US12102675B2", "about": "“MRNA therapeutic compositions” (Nutcracker Therapeutics, Inc., priority 2022, dated 2024)", "key": {"[1]": {"assay": "Rat toxicology study, control mRNA in DV-140-F2, intramuscular", "type": "in vivo, Sprague-Dawley rats", "conditions": "4 doses in 2 weeks", "method": "Briefly, Sprague-Dawley rats (n=8) were treated with a control mRNA formulated in DV-140-F2 at 0.03 or 0.3 mg/kg or PBS vehicle. Injections were done 4 times over the course of 13 days and were administered intramuscularly into the hind limb. Whole blood was taken for hematology, and serum taken for clinical chemistry and cytokine analysis at 6 hours post the first dose and final dose, and 2 weeks post the final dose. Additionally, 2 of the animals were sacrificed at 6 hours post the final dose and 2 weeks post final dose and a gross necropsy was performed. Tissue samples were retained and histopathology run on select organs."}, "[2]": {"tested_on": "persistent, recurrent, or metastatic cervical cancer, tumors express PD-L1 (CPS≥1)", "conditions": "in combination with chemotherapy, with or without bevacizumab; cited from earlier work"}, "[3]": {"tested_on": "recurrent or metastatic cervical cancer, tumors express PD-L1 (CPS≥1)", "conditions": "single agent, disease progression on or after chemotherapy; cited from earlier work"}, "HVEM": {"molecular_target": "T1, HVEM (Homo sapiens, UniProt Q92956)", "T1 construct": "host or cells: HVEM reporter cell line (not further described)", "T1 sequence (Q92956 39-283)": "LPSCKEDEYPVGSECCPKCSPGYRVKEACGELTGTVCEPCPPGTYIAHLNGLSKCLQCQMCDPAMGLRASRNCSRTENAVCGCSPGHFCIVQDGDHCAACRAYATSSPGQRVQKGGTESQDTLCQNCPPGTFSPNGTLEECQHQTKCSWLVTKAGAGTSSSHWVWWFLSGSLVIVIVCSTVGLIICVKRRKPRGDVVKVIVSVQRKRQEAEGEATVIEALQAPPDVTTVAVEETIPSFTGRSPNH", "assay": "HVEM activation by LIGHT, HVEM reporter cell line", "type": "cell-based", "conditions": "FIGS. 1A, 1B, 12", "text": "FIG. 12 illustrates pre-blocking of soluble LIGHT in HVEM co-HEK transfected cells.\nFIGS. 13A-13C are a comparison of HVEM activation with supernatant (blue) or cells (orange) for soluble LIGHT or membrane-stabilized LIGHT."}, "transfected cells": {"tested_on": "transfected cells", "assay": "Surface expression of soluble or membrane-stabilized LIGHT by flow cytometry using HVEM binding", "type": "cell-based", "conditions": "compared to WT LIGHT mRNA", "text": "FIGS. 14A and 14B depict the assessment of surface expression of soluble LIGHT or membrane-stabilized LIGHT by flow cytometry using HVEM binding."}, "primary human T cell": {"tested_on": "primary human T cell", "assay": "Human T cell proliferation in response to ENG or WT hLIGHT mRNA with hIL-12 mRNA", "type": "cell-based", "conditions": "HEK293 transfected with hIL-12 mRNA plus LIGHT mRNA, 1:5 with T cells, anti-CD3 30 or 100 ng/mL, 4 days; relative to IL-12 and WT hLIGHT", "method": "This study was designed to compare the ability of ENG and WT hLIGHT mRNAs in combination with hIL-12 mRNA to stimulate primary human T cell proliferation. Human T cells were isolated from PBMCs from 1 healthy donor and stained with CellTrace Violet. HEK293 cells were transfected with hIL-12 mRNA (RNA-683) and WT hLIGHT (RNA-786) or ENG hLIGHT (RNA-1359) mRNA formulated in Lipofectamine MessengerMAX (0.5 ng each mRNA per 1000 cells). Control cells were transfected with noncoding mRNA control in the same way. Transfected HEK293 cells were cocultured with the T cells in a 1:5 ratio in the presence of 30 ng/mL or 100 ng/mL anti-CD3 antibody to mimic antigen specific TCR engagement for 4 days at 37° C., 5% CO2. CD8+ T cell proliferation was assessed by flow cytometry and the proliferation index was calculated. […] The results are shown in FIG. 10A, where ENG=engineered; HEK=human embryonic kidney; IL-12=interleukin-12; PBMC=peripheral blood mononuclear cell; WT=wildtype. The data in FIG. 10A represent mean±standard deviation (n=4). Statistical analysis was performed by unpaired student's t-test (P<0.05)."}, "CD3+ T cells": {"tested_on": "CD3+ T cells", "assay": "T cell proliferation in co-culture with HEK cells transfected with LIGHT variants", "type": "cell-based, human", "conditions": "vs soluble (Wt) LIGHT, FIGS. 9A, 9B", "method": "LIGHT variants were formulated in MessengerMax mRNA Transfection Reagent. Human embryonic kidney (HEK) cells were transfected with the LIGHT variant constructs for cell surface expression of LIGHT. CellTrace Violet (Thermo Fischer Scientific) was used to label CD3+ T cells from the resulting peripheral blood mononuclear cells (PBMC). 100 ng/mL of soluble CD3 Antibody was added to the resulting labeled CD3+ T cells. The T cell proliferation and interferon-gamma (IFN-7) secretion was evaluated about 5 days of co-culture."}, "[4]": {"conditions": "High dose in rat, 100 μg RNA IM"}, "[5]": {"conditions": "Therapeutic dose scaled for rat, 30 μg RNA IM"}}, "note": "Entries after “also recorded” stand apart in the source; their conditions may differ."}
{"molecule": "CCCCCCCCCCN(CC(N)=O)C(=O)CN(CCCCCCCCCC)C(=O)CN(CCCCCCCCCC)C(=O)CN(CCCCCCCCCC)C(=O)CNCCO", "note": "[Compound 140, N-(2-amino-2-oxoethyl)-N-decyl-2-(N-decyl-2-(N-decyl-2-(N-decyl-2-((2-hydroxyethyl)amino)acetamido)acetamido)acetamido)acetamide]", "values": [{"measurement": "Gross organ pathology", "setting": "[1]; [4]", "result": "None observed"}, {"measurement": "Injection site reactions or other clinical observations", "setting": "[1]; [4]", "result": "None observed"}, {"measurement": "Gross organ pathology", "setting": "[1]; [5]", "result": "None observed"}, {"measurement": "Injection site reactions or other clinical observations", "setting": "[1]; [5]", "result": "None observed"}]}
{"molecule": "pembrolizumab [KEYTRUDA]", "values": [{"measurement": "overall survival", "setting": "[2]", "result": "improvements in overall survival"}, {"measurement": "objective response", "setting": "[3]", "result": "around 14%"}]}
{"molecule": "soluble LIGHT: Wild-type soluble human LIGHT (SEQ ID NO: 1) (protein, Human Wild Type LIGHT (786) aa) MEESVVRPSVFVVDGQTDIPFTRLGRSHRRQSCSVARVGLGLLLLLMGAGLAVQGWFLLQLHWRLGEMVTRLPDGPAGSWEQLIQERRSHEVNPAAHLTGANSSLTGSGGPLLWETQLGLAFLRGLSYHDGALVVTKAGYYYIYSKVQLGGVGCPLGLASTITHGLYKRTPRYPEELELLVSQQSPCGRATSSSRVWWDSSFLGGVVHLEAGEEVVVRVLDERLVRLRDGTRSYFGAFMV", "values": [{"measurement": "effect of soluble LIGHT on HVEM binding and signaling by membrane-stabilized LIGHT", "setting": "HVEM", "result": "decreases the ability of membrane-stabilized LIGHT to activate HVEM; also recorded: competes for HVEM binding and reduces signaling by membrane-stabilized LIGHT"}]}
{"molecule": "ENG hLIGHT: mRNA SEQ ID NO: 18 encoding human LIGHT with amino acids #66-92 replaced by 10 amino acid linker (SEQ ID NO: 17) (nucleic acid, LIGHT ICD TM 1-66 RLG … LIGHT 92-240 1359, aka 1495 nt) AGGCAUAGAAGUCGAGACACAGCCACUAAGUAAGCCACCAUGGAGGAGAGCGUGGUGCGGCCUAGCGUGUUCGUGGUCGACGGCCAGACCGACAUCCCCUUCACCAGACUGGGAAGAAGCCACAGAAGGCAGUCUUGCUCCGUGGCCAGAGUGGGCCUGGGCCUGCUCCUGCUGCUGAUGGGCGCUGGCCUGGCCGUGCAAGGCUGGUUCCUGCUGCAGCUGCACUGGCGGCUGGGCAGCAGCGCCUCUACCGAUAAGACCCACACCGUGAACCCUGCCGCCCACCUGACCGGCGCCAACAGCUCUCUGACCGGAUCUGGCGGACCUCUGCUGUGGGAGACACAGCUGGGCCUUGCUUUUCUGCGGGGCCUGAGCUACCACGACGGCGCUCUGGUGGUUACAAAGGCCGGCUACUACUACAUCUACAGCAAGGUGCAGCUGGGAGGCGUGGGUUGUCCACUGGGACUGGCCAGCACAAUCACACACGGCCUUUAUAAGCGGACCCCUAGAUACCCCGAGGAACUGGAACUGCUGGUCUCCCAGCAGAGCCCUUGCGGCAGAGCCACAAGCAGCAGCAGAGUGUGGUGGGACAGCUCAUUCCUGGGCGGCGUGGUGCAUCUGGAAGCCGGCGAGAAAGUGGUGGUCAGAGUGCUGGACGAGAGACUGGUGCGGCUGAGAGAUGGGACCCGCUCCUACUUCGGCGCCUUUAUGGUGUGAUAAGCGCCGCCUCCGGGACAGUGCACCCAGGCUGCGGCCCCUCCCCCGUCCUGGAGGUUCCCCAGCCCCACUUACCGCUUAAUGCGCCAAUAAACCAAUGAACGAAGCAAAAAAAAAAAAAAAAAAAAAAAAAAAAAAAAAAAAAAAAAAAAAAAAAAAAAAAAAAAAAAAAAAAAAAAAAAAAAAAAAAAAAAAAAAAAAAAAAAAAAAAAAAAAAAAAAAAAAAAAAAAAAAAAAAAAAAAAAAAAAAAAAAAAAAAAAAAAAAAAAAAAAAAAA", "values": [{"measurement": "surface expression and bioactivity on transfected cells", "setting": "transfected cells", "result": "higher surface expression and bioactivity"}, {"measurement": "CD8+ T cell proliferation and survival", "setting": "primary human T cell", "result": "increased CD8+ T cell proliferation and survival"}, {"measurement": "T-cell proliferation", "setting": "CD3+ T cells; listed as 1359", "result": "increase of T-cell proliferation"}, {"measurement": "T-cell proliferation", "setting": "CD3+ T cells; listed as ENG LIGHT mRNA", "result": "increased T cell proliferation"}]}
